Experimental findings from a melting point compilation (Tetko et al.; mined from patent text by program, amines drawn as free bases though some values may be those of a salt) are described below.

Some results are limits rather than exact numbers.

Broadly, the melting point is the temperature, or range, at which the solid turns liquid. With `CC(C)(C)OC(=O)N1CCC(Nc2nc3ccccc3[nH]2)CC1`, the melting point was 249 °C. The molecule `CNC(=O)[C@@H]1CSCc2c(O)cc(O)c(C)c2C(=O)OC[C@H](O)C(=O)N1` gave a melting point of 275 °C. On to `O=C(c1cc2cc3[nH]c(=O)oc3cc2[nH]1)N1CCC(Cc2ccccc2)CC1`, for which the melting point is 270 to 271 °C.

As for `CN1Cc2c(C=O)ncn2-c2ccccc2C1=O`, the melting point was 202 to 203 °C.

In turn, `O=C1CC(=O)N(c2ccc(Cl)cc2)N1` yielded a melting point of 189 to 193 °C.

As for `CS(=O)(=O)N[C@@H]1CCCC[C@H]1Nc1nc(Nc2ccc3c(c2)CCC(=O)CC3)ncc1Cl`, the melting point lay within 146 to 153 °C. Take `CC(Oc1ccc2nc(NC(=O)CCCN3CCOCC3)sc2c1)c1c(Cl)ccc(F)c1Cl` (stereo unspecified): the melting point fell in the range of 141 to 145 °C. Molecule `CCc1cccc(CC(=O)O)c1OCCCc1cn(-c2ccc(Cl)cn2)nc1C(CC)CC` displayed a melting point of 114 to 115 °C. Take `CCCc1nc2c(N)nc3cc(OCCOCCCl)ccc3c2s1`: the melting point was in the range of 101 to 103 °C. With `CN(C)c1ccc(C(=O)C(F)(F)c2ccccc2)cc1`, the melting point lay in the range of 115 to 116 °C. For `CC1(C)CN(c2ncc(C(=O)N(CC3CC3)c3cccc(C(F)(F)F)c3)c(N)n2)C(=O)N1`, the melting point is 193 to 194 °C. `OCCN(Cc1ccc2ccccc2c1)C1(c2nccc3sccc23)CCNCC1` had a melting point of 53 to 55 °C. The molecule `Nc1ccc(F)c(-c2ccccn2)c1F` displayed a melting point of 71 to 73 °C. Regarding `CCn1c(=O)c2c(-c3nc(C)no3)ncn2c2cccnc21`, the melting point was 251 to 252 °C. With `N#Cc1nn(-c2c(Cl)cc(C(F)(F)F)cc2Cl)c(N2CCOCC2)c1S(=O)(=O)C(F)(F)F`, the melting point lay in the range of 167 to 169 °C. `CCC(=O)Nc1c([N+](=O)[O-])cnn1-c1nc(Cl)c(C(F)(F)F)cc1Cl`: the melting point lay within 148 to 154 °C. The same measure for `CC1CCN(C(=O)C(Cc2cc3c(N)nccc3s2)NS(=O)(=O)c2ccc(OC3CCOCC3)cc2)CC1` (stereo unspecified): 127 to 129 °C; for `CS(=O)(=O)c1ccc(-c2oc3ccccc3c(=O)c2-c2ccc(F)cc2)cc1`: 98 to 100 °C; for `CC(C)(C)c1ccnc(NC(=O)Nc2ccc(Oc3ccc(Cl)cc3)cc2)c1`: 198 to 199 °C. With `CC(=O)Cc1ccc(OCc2ccccc2)cc1` the figure was 50 to 54 °C; with `CCOC(=O)C1(C(=O)OCC)C(C(C)=O)C(=O)N1Cc1ccc(OC)cc1OC` (stereo unspecified), 84 to 85 °C. Turning to `CC1=C(C(=O)OC(C)C)C(c2cccc(Cl)c2)NC(=O)N1C(=O)NC(C)c1ccccc1` (stereo unspecified), the melting point was in the range of 198 to 200 °C. `CNc1nc(OCc2ccccc2)ccc1[N+](=O)[O-]` registered a melting point of 149 °C.

`CN1C(=O)CON(C(=O)OCc2ccccc2)C1c1ccccc1` (stereo unspecified) displayed a melting point of 82 to 83 °C. Take `CCOc1c(NCc2c(C)cc(C)cc2Cl)c(=O)c1=O`: the melting point lay in the range of 292 to 294 °C. As for `CCOC(=O)c1ccc(OCCCCCCCCCCCCCOc2ccc(Cl)cc2)cc1`, the melting point was in the range of 75 to 77 °C.

The molecule `Clc1ncnc2c1ncn2-n1cccc1` registered a melting point of 204 to 206 °C.

In turn, `CC(F)c1ncnc(NCc2ccc(C(C)(C)C)cc2)c1I` (stereo unspecified) had a melting point of 114 to 115 °C. For `Nc1cc(Oc2ccc3c(c2)OCCN3)ncn1`, the melting point lay in the range of 140 to 141 °C. For the molecule `Cc1cc(O)ccc1-c1ccc2cc(O)ccc2c1`, the melting point was in the range of 191 to 193 °C. Consider `Cc1nccn1-c1nn(Nc2cnccn2)nc1-c1cccc(C#N)c1`, for which the melting point turned out to be 276 °C.

As for `CCNc1nc(C)c(-c2ccnc(Nc3cc(Cl)c(N4CCOCC4)c(Cl)c3)n2)s1`, the melting point is over 300 °C. With `O=C(Oc1ccccc1)N1CCC2(CC1)c1ccccc1Sc1ccccc12` the figure was 149 to 151 °C; with `CC(O)(C(=O)Nc1ccc(S(=O)(=O)F)cc1)C(F)(F)F` (stereo unspecified), 152 to 154 °C; with `C#CCc1c(C)nc2c(OCc3c(C)cccc3NC(=O)C(C)O)cccn12` (stereo unspecified), 186 to 188 °C. Turning to `CC(C)c1cc(O)ccc1OCc1ccccc1`, the melting point lay in the range of 39 to 40 °C. The same measure for `CC(=O)N(CC(=O)O)c1ccc(C)cc1C`: 165 to 172 °C. Molecule `CCOC(=O)NC(Cc1ccccc1)C(O)C(=O)O` (stereo unspecified) yielded a melting point of 138 to 140 °C. For the molecule `O=C1Cc2cc3c(cc2C(c2ccc([N+](=O)[O-])cc2Cl)=NN1)OCO3`, the melting point was 202 to 204 °C. As for `CC(C)(C)c1ccc(NC(=O)N2CCC3(CC2)CC(CCc2ccccc2)=NO3)cc1`, the melting point was 153 to 154 °C. For the molecule `COc1ccc(N(C)c2nc(C)nc3oc(C)cc23)cc1`, the melting point lay in the range of 108 to 109 °C. With `CCn1cc(C(=O)O)c(=O)c2cnc(N3CCN(Cc4ccc(OC)cc4)CC3)nc21` the figure was 136 °C. With `O=C(NC(Cc1ccccc1)C(=O)O)OCc1ccc(NC(=O)c2ccccc2)cc1` (stereo unspecified), the melting point was in the range of 197 to 198 °C. For `CCCCCCCCCCOc1ccc(C(O)C(O)c2ccc(C(=O)OC)cc2)nc1CCC(=O)OC` (mixture of isomers), the melting point fell in the range of 88 to 92 °C. The molecule `CNc1nc(N)ncc1-c1cccc(Cl)c1Cl` showed a melting point of 233 to 237 °C.

In the case of `ClC1=NCc2c(-c3noc(C4CC4)n3)ncn2-c2ccc(Cl)cc21`, the melting point was 200 °C.

`CSc1nnc(-c2ccnc(Nc3cccc(C(F)(F)F)c3)c2)o1` yielded a melting point of 189 to 190 °C.

In turn, `FC(F)(F)c1ccc(-c2cc(Oc3ccc4c(C(F)(F)F)ccnc4c3)ncn2)cc1` returned a melting point of 129 to 131 °C. Consider `CC(=O)OC1C=CC2(C)C(=CCC3C2CCC2(C)C3CCC23OCCO3)C1` (stereo unspecified), for which the melting point fell in the range of 105 to 106 °C. With `Cc1cc(-n2ccnc2)c2cccc(OCc3c(Cl)ccc(S(=O)(=O)N4CCC[C@H]4C(=O)NCC4CCN(CCCCO)CC4)c3Cl)c2n1` the figure was 112 °C; with `COC(=O)c1ccc(N(C(=O)c2ccccc2-c2ccccc2)C(=O)c2ccccc2-c2ccccc2)nc1`, 180 to 188 °C; with `Cc1c(C2CCC(c3cccs3)(N(C)C)CC2)[nH]c2ccccc12` (stereo unspecified), 191 to 197 °C. As to `CN1CCN(S(=O)(=O)c2ccc([N+](=O)[O-])cc2[N+](=O)[O-])CC1`, the melting point fell in the range of 164 to 165 °C. With `O=C1Cc2c([nH]c3cc(Cl)cc(Cl)c23)-c2ncccc2N1`, the melting point was over 330 °C. For the molecule `COC(=O)C(C)(C)Cc1c(SC(C)(C)C)c2cc(OCc3ccc4cc(F)c(F)cc4n3)ccc2n1Cc1ccc(Cl)cc1`, the melting point is 171 to 173 °C. Molecule `CC(C)Nc1cccnc1N1CCN(C(=O)c2ccc(C(=O)N[C@H](CO)c3ccccc3)cc2)CC1` showed a melting point of 93 to 95 °C. `CC(C)n1nc(-c2cc(C(=O)O)c(=O)[nH]c2-c2ccccc2)ccc1=O` came in with a melting point of 212 to 215 °C. Turning to `CC[C@H](C)[C@H](Nc1nc(C(=O)c2ccccc2)ns1)C(=O)N1CCC[C@H]1C(=O)O`, the melting point fell in the range of 132 to 134 °C. In the case of `CC(C)(CCCCCCCCCCC(C)(C)C(Cl)C(=O)O)C(Cl)C(=O)O` (stereo unspecified), the melting point was 103 to 112 °C. As for `O=C(O)CN1C(=O)C(=Cc2ccc(Cl)cc2)SC1=S`, the melting point lay within 272 to 274 °C. `COC(=O)c1cc(-c2ccc(F)c(C)c2)nn(CC=Cc2ccccc2)c1=O` returned a melting point of 95.9 to 96.7 °C. Molecule `CCOC(=O)C(=CNc1ccc2nc(C)n(C)c2n1)C(=O)OCC` yielded a melting point of 128 to 130 °C. `CCOCn1c(Cl)c(C#N)c(Cl)c1-c1ccc(Cl)c(Cl)c1` gave a melting point of 106 to 109 °C. Take `CCCCCCCCCCCCCCS(=O)(=O)NC(=O)Nc1c(C(C)C)cccc1C(C)C`: the melting point fell in the range of 135 to 137 °C. Take `COc1ccc2c(c1)CC(CNC(=O)Nc1c(C(C)C)cccc1C(C)C)CC2` (stereo unspecified): the melting point was in the range of 171 to 172 °C.

`CC(CCn1c(=O)[nH]c2ccccc21)N1CCC(CC(=O)c2ccc(F)cc2)CC1` (stereo unspecified): the melting point worked out at 185 °C.

For `O=C(c1ccccc1)N1CCC2(CC1)Cc1ccccc1C2=O`, the melting point fell in the range of 149 to 154 °C.

Molecule `CN(C(=O)CN1C(=O)C(NC(=O)Nc2cccc(C#N)c2)N=C(CN2CCSCC2)c2ccccc21)c1ccccc1` (stereo unspecified) registered a melting point of 165 °C. Consider `CN1CCCC(Nc2ccnc3cc(Cl)ccc23)C1` (racemic), for which the melting point lay in the range of 149 to 150 °C. `CN(C)CC(C)(C)CNc1nccc(-c2c(-c3ccc(F)cc3Cl)nc3occn23)n1` came in with a melting point of 124 to 126 °C. Molecule `COc1ccc2c(c1)C(=NO)c1c-2c(O)nc2ccccc12` displayed a melting point of 320 to 321 °C.

Turning to `CCOC(=O)C1=C(CC)N(CCOC(=O)c2ccccc2)C(=O)NC1c1ccccc1` (stereo unspecified), the melting point stood at 111 °C. With `CCOC(=O)c1cn(-c2cccc(O)c2)cn1` the figure was 164 to 165 °C. Turning to `Cc1ccc(CI)cc1Cl`, the melting point is 88 °C.

As to `CCCN(CCC)C(=O)CNc1nc(-c2ccccc2)nc(C(C)C)c1C`, the melting point fell in the range of 98 to 99 °C. Molecule `COC(=O)c1ccc(S(C)(=O)=O)c(COC(C)=O)c1Cl` came in with a melting point of 165 to 168 °C.

For `COc1ccc(-c2nc(C(=O)Nc3c(C)cccc3C)c[nH]2)cc1OC1CCCC1`, the melting point was 118 to 122 °C. Molecule `Cc1ccc(CNc2nc(Cl)nc(Nc3ccc4[nH]c(=O)[nH]c4c3)n2)o1` registered a melting point of 164 to 166 °C. The same measure for `Cc1ccc(-c2c3ccccc3c(-c3ccc(C)cc3)c3cc(Cl)ccc23)cc1`: 202 to 204 °C.

For the molecule `COC(=O)c1ccc2cc(CCCCCc3cc4ccc(C(=O)OC)cc4o3)oc2c1`, the melting point was 83 to 85 °C.

Molecule `CNC(=O)Oc1cc(C)c(NC(=O)C(F)(F)Cl)cc1C` returned a melting point of 187 to 188 °C. Molecule `Nc1ccc(S(=O)(=O)C(F)(F)F)c2sc3ccccc3c12` showed a melting point of 108 °C. `CC(C)(Oc1ccc(N)cc1)C(=O)O` registered a melting point of 214 to 216 °C. The same measure for `COc1ccc(C[C@H](NC(=O)OCc2ccccc2)[C@H]2CO2)cc1`: 86 to 87 °C; for `CCCCOc1ccc(NC(=O)c2ccccc2C(c2ccc(O)cc2)c2ccc(O)cc2)cc1`: 110 to 112 °C.

In the case of `CN1CCC(C2c3ccccc3C=Cc3ccc(Br)cc32)CC1` (single isomer, unassigned; (+)), the melting point lay within 178 to 180 °C.
